# Data taken from US7767204B2, “Method and composition for protecting neuronal tissue from damage induced by elevated glutamate levels” (Yeda Research And Development Co. Ltd., priority 2002, dated 2010).
# T1: glutamate, 2-ketoglutarate (Escherichia coli, UniProt P00509)
# T1 sequence (P00509 whole entry, looked up): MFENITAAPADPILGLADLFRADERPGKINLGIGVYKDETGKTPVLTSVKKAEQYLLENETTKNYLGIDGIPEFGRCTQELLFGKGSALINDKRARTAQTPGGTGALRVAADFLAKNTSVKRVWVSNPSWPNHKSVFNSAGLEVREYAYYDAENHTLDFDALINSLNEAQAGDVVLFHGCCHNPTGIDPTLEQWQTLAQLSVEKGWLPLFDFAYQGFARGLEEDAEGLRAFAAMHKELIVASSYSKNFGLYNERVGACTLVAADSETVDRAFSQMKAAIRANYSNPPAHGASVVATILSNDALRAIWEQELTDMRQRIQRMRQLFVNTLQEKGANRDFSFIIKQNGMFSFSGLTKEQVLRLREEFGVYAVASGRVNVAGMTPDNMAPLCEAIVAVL
# Columns and labels:
# [1] = tested on: glutamate in blood cells and plasma (GPT, GOT, 2-ketoglutarate dehydrogenase, GDH); test: In-vitro glutamate levels and conversion in blood cell fraction and plasma; type: biochemical, rat; conditions: for blood cell (cellular) glutamate levels / plasma glutamate levels: incubation of blood with GDH co-factors in vitro
# Procedure: (§1) Induction of rat blood glutamate metabolism and glutamate concentration determination—Fresh rat blood samples incubated at 37° C. were supplemented every 15 minutes or as noted with oxaloacetate and/or pyruvate (final concentration of 1 mM at pH 7.4).
# (§2) At indicated time intervals, 150 μl aliquots were removed and centrifuged at 1,300×g for 7 minutes. Plasma volume (i.e., supernatant) was measured and was combined with identical volume of perchloric acid (PCA) to precipitate protein content. Precipitation was allowed to proceed for 10 minutes on ice and thereafter samples were centrifuged. Cell pellet (i.e., erythrocytes, lymphocytes and platelets) was lysed by osmotic shock following resuspension in double distilled water up to a final volume of 150 μl. A second step of protein precipitation was then performed by adding 150 μl of PCA [[…]]. Plasma and cell PCA-precipitated fractions were centrifuged at 16,000×g for 10 minutes and pellets were discarded.
# Supernatant glutamate concentration was determined according to the fluorometric procedure of Graham and Aprison [(1996) Anal. Biochem. 15(3):487-97]. In brief: 20 μl aliquot of PCA precipitated fraction was added to 480 μl HG buffer containing 15 u of glutamate dehydrogenase in 0.2 mM NAD, 0.3 M glycine, 2.4% hydrazine hydrate adjusted to pH 6.8 with H2SO4 [1 N] and incubated at room temperature for 30-45 minutes. Fluorescence was measured at 460 nm following excitation at 350 nm. All measurements were performed alongside a glutamate standard curve at a glutamate concentration range of 0-6 μM. All glutamate measurements were performed in duplicates.
# Results—Glutamate levels were therefore determined individually in blood cell fractions (closed symbols) and in plasma (open symbols), following repeated additions (arrows) of 1 mM pyruvate (squares), 1 mM oxaloacetate (triangles) or of a mixture of 1 mM pyruvate and 1 mM oxaloacetate (diamonds) (FIG. 2A). Glutamate determination was conducted as described in Example 1.
# [2] = tested on: rat blood plasma glutamate (GOT, GPT); test: Glutamate conversion in rat blood plasma by pyruvate and oxaloacetate analogues; type: biochemical; conditions: for % of remaining Glutamate: rat blood plasma, 1 mM of each co-substrate
# Procedure: A number of glutamate modifying enzymes were tested for their ability to enhance glutamate conversion in rat blood plasma. Table 1 below summarizes the results obtained with 1 mM of each co-substrate.
# [3] = Blood concentrations of pyruvate and oxaloacetate during intravenous infusion; type: in vivo, rat; conditions: intravenous 50 μMoles/min each for 30 min
# Procedure: Glutamate analyses of in-vivo treated blood samples were carried out according to the fluorometric procedure of Graham and Aprison [(1996) Anal. Biochem. 15(3):487-97]. Pyruvate concentration determination—Blood Pyruvate concentration was measured using the Sigma Diagnostics Pyruvate reagents according to manufacturer's instructions. In brief: the procedure utilizes lactate dehydrogenase which in the presence of excess NADH catalyzes almost complete conversion of pyruvate into lactate with a concomitant production of NAD. The reduction of absorbance at 340 nm due to the oxidation of NADH into NAD is the measure of the amount of pyruvate originally present.
# (§3) Oxaloacetate concentration determination—Blood oxaloacetate concentration was measured using the same procedure as for pyruvate but using malate dehydrogenase which catalyses the conversion of oxaloacetate into malate along with the oxidation of NADH into NAD.
# Results—The effect on glutamate levels via pyruvate and oxaloacetate administration through an intravenous catheter at a rate of 50 μMoles/minute for a duration of 30 minutes was determined. Blood concentrations of glutamate, pyruvate and oxaloacetate were monitored in parallel. […] However, as soon as the administration of pyruvate and oxaloacetate was stopped, their blood concentration decreased and the glutamate level increased concomitantly.
# [4] = tested on: brain to blood glutamate efflux; test: Brain-to-blood [3H]Glu efflux after intracerebroventricular injection; conditions: first 10 minutes after injection in lateral ventricle, n=8
# Procedure: Catheterization of the tail vein (for drug injections) and of the femoral vein (for blood aliquot withdrawals) was performed using PE10 polyethylene tubing linked to PE50 polyethylene tubing. […] A 27G steel cannula was implanted in the right lateral ventricle using the following stereotactic coordinates: 0.8 mm posterior to bregma; lateral 1.4 mm; depth: 4 mm from skull or 3.5 mm from dura. A [^3H] glutamate solution in phosphate buffered saline (PBS) was injected into the lateral ventricle through the implanted cannula using a Hamilton syringe (25 μl) connected to PE20 tube filled with solution. A total volume of 11 μl was injected within approximately 2 minutes.
# For radioactivity determination, 50 μl blood samples were diluted in 500 μl H2O and added to 16 ml of scintillation fluid. Measured cpms were corrected for quenching as determined by comparing the measured cpms of a set volume of [^3H] glutamate added to water or to diluted blood. Body temperature was maintained with a lamp and rectal temperature was monitored. Rat pulse rate was monitored using a Periflux system 500 and a laser Doppler probe placed onto the skull.
# Intravenous injections of pyruvate and oxaloacetate diluted in phosphate buffered saline (PBS) were carried out at a rate of 0.05 ml/minute for 30 minutes with a Pharmacia pump P-1.
# [5] = Glutamate life time in blood after bolus intravenous injection of labelled glutamate; type: in vivo, rat
# Procedure: Results—Glutamate normalization may be accomplished by estimating the rate of disappearance of [^14C] glutamate from the blood, by methodology detailed in the preceding example. Administration of a bolus intravenous injections of 11 μCi radio-labeled glutamate in the absence or presence of non-radioactive glutamate was conducted and the presence of radioactivity in blood was monitored over time (FIG. 19).
# [6] = tested on: blood and plasma glutamate (GOT); test: Effect of diethyloxaloacetate on glutamate in rat blood and plasma in vitro; type: biochemical; conditions: 10 mM
# Procedure: Thereafter, the effect of diethyloxaloacetate on Glutamate levels was assessed. Glutamate levels were determined in rat blood samples upon incubation in the absence or presence of 10 mM diethyloxaloacetate. […] FIG. 31 represents the amount of plasma glutamate converted probably into α-ketoglutarate following the activation of GOT as a function of time by the presence of 10 mM diethyloxaloacetate.
# [7] = Conversion of diethyloxaloacetate into oxaloacetate in rat blood and tissue homogenates; type: in vitro ADME; conditions: 10 mM diethyloxaloacetate
# Procedure: as §3
# The use of an oxaloacetate prodrug, which following in vivo administration, is converted to oxaloacetate, may obviate this problem. Thus the commercially available oxaloacetate diethylester (FIG. 27B) was considered in this context. Conversion of oxaloacetate diethylester into oxaloacetate following incubation with tissue homogenates derived from rat liver, colon, ileum, jejunum and duodenum was investigated.
# [8] = target: T1, glutamate, 2-ketoglutarate; conditions: cited from earlier work
# [9] = tested on: blood glutamate (blood resident GPT and GOT); test: In-vitro scavenging of glutamate in whole rat blood by activation of resident enzymes; type: biochemical; conditions: 37° C., 1 mM co-substrate and/or 2.5 u/ml GPT
# Procedure: as §1, §2
# Supernatant glutamate concentration was determined according to the fluorometric procedure of Graham and Aprison [(1996) Anal. Biochem. 15(3):487-97]. […] Fluorescence was measured at 460 nm following excitation at 350 nm. […]
# [10] = normal blood glutamate concentration of 209 μM
# [11] = rat blood in vitro, 24 hours, 37° C.
molecule,measurement,setting,value
Nc1ncnc2c1ncn2[C@@H]1O[C@H](COP(=O)(O)OP(=O)(O)O)[C@@H](O)[C@H]1O [ADP],blood cell (cellular) glutamate levels,[1],did not significantly alter glutamate levels
same,plasma glutamate levels,[1],increased plasma glutamate levels
O=CC(=O)O [Glyoxalate],% of remaining Glutamate,[2],74%
CC(C)C[C@H](N)C(=O)O [Leucine],blood cell (cellular) glutamate levels,[1],did not significantly alter glutamate levels
same,plasma glutamate levels,[1],increased plasma glutamate levels
NC(=O)c1ccc[n+]([C@@H]2O[C@H](COP(=O)([O-])OP(=O)(O)OC[C@H]3O[C@@H](n4cnc5c(N)ncnc54)[C@H](O)[C@@H]3O)[C@@H](O)[C@H]2O)c1 [NAD],blood cell (cellular) glutamate levels,[1],decrease in blood cell glutamate levels
same,plasma glutamate levels,[1],increase in plasma glutamate levels
O=C(O)CC(=O)C(=O)O [Oxaloacetate],blood concentration built up,[3],450 µM
CC(=O)C(=O)O [Pyruvate],blood concentration built up,[3],450 µM
O=CCCC(=O)O [Succinic semialdehyde],% of remaining Glutamate,[2],78%
"N[C@@H](CCC(=O)O)C(=O)O [[^3H] glutamate, glutamate]","rate of appearance of radioactivity in blood, of the amount input in the brain per minute",[4],0.8%±0.1
same,glutamate eliminated per minute,[5]; blood glutamate 3.4 mM,69 nmoles glutamate/ml blood
same,elimination half-life in blood,[5]; blood glutamate 3.4 mM after intraperitoneal 2 mMoles of glutamate,24.6 min
same,elimination rate constant,[5]; normal blood glutamate concentration,0.035 min⁻¹
same,elimination half-life in blood,[5]; [10],19.3 min
same,glutamate eliminated per minute,[5]; [10],5.4 nmoles of glutamate/ml blood
CCOC(=O)CC(=O)C(=O)OCC [diethyloxaloacetate],glutamate blood levels,[6]; [11],did not affect glutamate blood levels
same,plasma glutamate,"[6]; rat blood plasma in vitro, following 9 hours incubation",significant increase in plasma glutamate
same,increase in basal oxaloacetate levels,"[7]; liver and sections of rat gut mucosa, within 15 minutes",400%
same,increase of blood oxaloacetate,[7]; [11],240%
Cc1ncc(COP(=O)(O)O)c(C=O)c1O [pyridoxal phosphate],enhancement of pyruvate and oxaloacetate-mediated decrease in cellular or plasma glutamate,[1]; 15 μM pyridoxal phosphate,No significant effects
CCC(=O)C(=O)O [α-Ketobutyrate],decrease in plasma glutamate levels,"[2]; 0.5 mM, rat plasma",no effect
same,glutamate degradation as compared to basal glutamate levels,"[2]; 2 mM, rat plasma",40%
same,conversion of glutamate in the presence of oxaloacetate,[2]; in the presence of 0.25 mM oxaloacetate,enhanced conversion of glutamate
same,% of remaining Glutamate,[2],97%
O=C(O)C(=O)CO [β-Hydroxypyruvate],% of remaining Glutamate,[2],74%
O=C(O)C(=O)Cc1ccccc1 [β-Phenylpyruvate],% of remaining Glutamate,[2],76%
α-Isocaproate,% of remaining Glutamate,[2],83%
"E. coli GOT: E. coli glutamate oxaloacetate transaminase, GenBank Accession No. D90731.1 (protein, UniProt P00509 1-396, looked up) Aspartate aminotransferase: MFENITAAPADPILGLADLFRADERPGKINLGIGVYKDETGKTPVLTSVKKAEQYLLENETTKNYLGIDGIPEFGRCTQELLFGKGSALINDKRARTAQTPGGTGALRVAADFLAKNTSVKRVWVSNPSWPNHKSVFNSAGLEVREYAYYDAENHTLDFDALINSLNEAQAGDVVLFHGCCHNPTGIDPTLEQWQTLAQLSVEKGWLPLFDFAYQGFARGLEEDAEGLRAFAAMHKELIVASSYSKNFGLYNERVGACTLVAADSETVDRAFSQMKAAIRANYSNPPAHGASVVATILSNDALRAIWEQELTDMRQRIQRMRQLFVNTLQEKGANRDFSFIIKQNGMFSFSGLTKEQVLRLREEFGVYAVASGRVNVAGMTPDNMAPLCEAIVAVL",affinity for 2-ketoglutarate,[8],about 0.2 mM
same,affinity for glutamate,[8],about 8 mM
"GPT: glutamate pyruvate transaminase enzyme added at 2.5 u/ml (protein, UniProt P24298 2-496, looked up) Alanine aminotransferase 1: ASSTGDRSQAVRHGLRAKVLTLDGMNPRVRRVEYAVRGPIVQRALELEQELRQGVKKPFTEVIRANIGDAQAMGQRPITFLRQVLALCVNPDLLSSPNFPDDAKKRAERILQACGGHSLGAYSVSSGIQLIREDVARYIERRDGGIPADPNNVFLSTGASDAIVTVLKLLVAGEGHTRTGVLIPIPQYPLYSATLAELGAVQVDYYLDEERAWALDVAELHRALGQARDHCRPRALCVINPGNPTGQVQTRECIEAVIRFAFEERLFLLADEVYQDNVYAAGSQFHSFKKVLMEMGPPYAGQQELASFHSTSKGYMGECGFRGGYVEVVNMDAAVQQQMLKLMSVRLCPPVPGQALLDLVVSPPAPTDPSFAQFQAEKQAVLAELAAKAKLTEQVFNEAPGISCNPVQGAMYSFPRVQLPPRAVERAQELGLAPDMFFCLRLLEETGICVVPGSGFGQREGTYHFRMTILPPLEKLRLLLEKLSRFHAKFTLEYS",blood glutamate levels,[9],significant increase in blood glutamate
